Reference: patent publication US20090192227A1, “N-Acetylcysteine Compositions and Methods for Treating Acute Exacerbations of Inflammatory Lung Disease” (priority 2005, published 2009)
“Also recorded” adds a separate entry of the source.

Key:
[1] = more stable than cysteine; cited from earlier work
[2] = systematic review of randomized controlled trials; cited from earlier work
[3] = Phase 2 trial: FEV1 (% Pred), lung function; type: in vivo, human
Description: (§1) Summary. Based on the success of the phase I trial, the trial proceeded to phase II. This single-center trial consisted of a 12-week placebo-controlled section followed by a 12-week open label section, with oral NAC 0.9 g, taken three times daily. The statistical plan for the study was designed to assess the safety and efficacy of NAC versus placebo, at 0 week and 12-week timepoints (placebo-controlled section). Of the 24 subjects screened for eligibility, 21 were enrolled and randomized into NAC and placebo groups. One subject asked to be withdrawn from the prior to the 6 week time point because the medication regimen was too onerous. […] Two other subjects also were removed from participation in the study by the principal investigator due to poor adherence to the study protocol. […] Thus, 18 subjects are included in this intent-to-treat (ITT) analysis (9 on NAC and 9 on placebo).
(§2) Intention-to-treat analysis of efficacy endpoints. Besides the necessary assessment of the safety of high-dose oral NAC in a placebo-controlled setting, this phase 2 trial also was designed to gain a better understanding of treatment efficacy with regards to improving inflammation, redox imbalance and lung function in CF, albeit within the limits inherent to a small study. In particular, the study looked to confirm the positive effects of high-dose oral NAC seen on sputum neutrophil count and HNE activity obtained in phase 1. The primary efficacy endpoint in this phase 2 study is sputum neutrophil count (based on the quantification of live neutrophils by microscopy, reflecting lung inflammation) and the four secondary efficacy endpoints are: (i) FEV1 (% Pred), reflecting lung function; (ii) blood neutrophil GSH, reflecting systemic redox imbalance; (iii) sputum HNE activity, reflecting lung inflammation, the current best predictor of CF lung disease; and (iv) whole blood GSH, reflecting systemic redox imbalance. Data on all other main efficacy endpoints (along with sputum HNE and IL-8 protein levels as additional indicators of inflammation) is presented in Table 3 (below) for all 9 subjects of the NAC group and 9 subjects in the placebo group included in the ITT analysis.

[4] = test system: sputum leukocytes and neutrophils; assay: Phase I trial: sputum counts of live leukocytes and neutrophils by microscopy; type: in vivo, human; settings: 4 weeks
Description: (§3) With regards to efficacy, very significant positive effects of the treatment were documented. These positive effects (Table 2) included amelioration of: 1—Whole blood GSH (+11%, P=0.03), as measured by HPLC and blood neutrophil GSH (+17%, P=0.03), as measured by flow cytometry; 2—Live sputum leukocyte (−21%, P=0.03) and neutrophil (−25%, P=0.02) counts, as measured by microscopy and sputum elastase activity (−44%, P=0.02), as measured by kinetic spectrophotometry; and 3—Perceived weight gain (P=0.01), as measured by the CF QOL
(§4) 2. Lung inflammation, as reflected chiefly by (i) sputum counts in total live leukocytes and neutrophils (along with % neutrophils in sputum); (iii) plasma/sputum levels of elastase and interleukin-8 (IL-8) measured by spectrophotometry and ELISA
(§5) Differences between basal and post-NAC values were studied by matched pair analysis, first, without distinguishing dose cohorts, to detect drug effects, and second, with dose cohorts as a factor, in order to detect potential dose effects.

blood neutrophil GSH = assay: Phase 2 trial: blood neutrophil intracellular GSH; type: in vivo, human; settings: NAC group (n=9), ITT
Description: Summary. Based on the success of the phase I trial, the trial proceeded to phase II. This single-center trial consisted of a 12-week placebo-controlled section followed by a 12-week open label section, with oral NAC 0.9 g, taken three times daily. The statistical plan for the study was designed to assess the safety and efficacy of NAC versus placebo, at 0 week and 12-week timepoints (placebo-controlled section). Of the 24 subjects screened for eligibility, 21 were enrolled and randomized into NAC and placebo groups. One subject asked to be withdrawn from the prior to the 6 week time point because the medication regimen was too onerous. […] Two other subjects also were removed from participation in the study by the principal investigator due to poor adherence to the study protocol. […]
Intention-to-treat analysis of efficacy endpoints. […] The primary efficacy endpoint in this phase 2 study is sputum neutrophil count (based on the quantification of live neutrophils by microscopy, reflecting lung inflammation) and the four secondary efficacy endpoints are: (i) FEV1 (% Pred), reflecting lung function; (ii) blood neutrophil GSH, reflecting systemic redox imbalance; (iii) sputum HNE activity, reflecting lung inflammation, the current best predictor of CF lung disease; and (iv) whole blood GSH, reflecting systemic redox imbalance. […]

[5] = 600 mg three times daily plus prednisone plus azothioprine, one year, vs standard therapy alone; cited from earlier work
[6] = Phase 2 trial: exacerbations of sinus/lung disease, week 0 through week 12; type: in vivo, human; settings: NAC group, placebo 7/9, P=0.04
Description: as §1
During week 0 through week12, exacerbations of sinus/lung disease affected 9/18 subjects. Subjects were less prone to exacerbations in the NAC than in the placebo group (2/9 vs. 7/9, respectively, P=0.04, Fisher's exact test). […]

[7] = Phase 2 placebo-controlled CF trial: safety, adverse events, adherence, CF QOL; type: in vivo, human
Description: Summary. […] This single-center trial consisted of a 12-week placebo-controlled section followed by a 12-week open label section, with oral NAC 0.9 g, taken three times daily. The statistical plan for the study was designed to assess the safety and efficacy of NAC versus placebo, at 0 week and 12-week timepoints (placebo-controlled section).
Serious adverse events and adverse events. […] As used herein, the term “DIOS”, which stands for “Distal Intestinal Obstruction Syndrome” refers to a condition unique to CF that occurs due to the accumulation of viscous mucous and fecal material in the terminal ileum, caecum and ascending colon, which may cause progressive symptoms of recurrent colicky abdominal pain, bloating, nausea and anorexia, and signs of small intestinal obstruction.

elastase = assay: Phase I trial: sputum elastase activity by kinetic spectrophotometry; type: in vivo, human; settings: 4 weeks
Description: as §3, §4, §5

[8] = Phase I trial: lung function by spirometry; type: in vivo, human; settings: short-term treatment (4 weeks)
Description: 3. Lung function, as measured by spirometry. Differences between basal and post-NAC values were studied by matched pair analysis, first, without distinguishing dose cohorts, to detect drug effects, and second, with dose cohorts as a factor, in order to detect potential dose effects. […] Any sizeable change in lung function will likely require longer treatment and larger group size, which we look forward to implementing in the placebo-controlled phase of the study.

[9] = 600 mg oral NAC per day, at least two exacerbations per year for 2 years; cited from earlier work
[10] = test system: human neutrophil elastase (HNE); assay: Phase 2 trial: sputum HNE protein levels; type: in vivo
Description: as §1
as §2, with “In particular, the study looked to confirm the positive effects of high-dose oral NAC seen on sputum neutrophil count and HNE activity obtained in phase 1.” left out, “Data on all other main efficacy endpoints (along with sputum HNE and IL-8 protein levels as additional indicators of inflammation) is presented in Table 3 (below) for all 9 subjects of the NAC group and 9 subjects in the placebo group included in the ITT analysis.” left out
(§6) These various markers of inflammation were measured independently with different methodologies (e.g., microscopy, kinetic spectrophotometry, enzyme-linked immunosorbent assay), the results of which further strengthen the significance of these positive outcomes. […]

interleukin-8 (IL-8) = assay: Phase I trial: sputum interleukin-8 (IL-8) by ELISA; type: in vivo, human; settings: 3 patients excluded (N = 15), 4 weeks
Description: 2. Lung inflammation, as reflected chiefly by (i) sputum counts in total live leukocytes and neutrophils (along with % neutrophils in sputum); (iii) plasma/sputum levels of elastase and interleukin-8 (IL-8) measured by spectrophotometry and ELISA Differences between basal and post-NAC values were studied by matched pair analysis, first, without distinguishing dose cohorts, to detect drug effects, and second, with dose cohorts as a factor, in order to detect potential dose effects.

sputum neutrophils = assay: Phase 2 trial: sputum neutrophil count (live neutrophils by microscopy); type: in vivo, human
Description: as §1
as §2, with “Data on all other main efficacy endpoints (along with sputum HNE and IL-8 protein levels as additional indicators of inflammation) is presented in Table 3 (below) for all 9 subjects of the NAC group and 9 subjects in the placebo group included in the ITT analysis.” left out

[11] = administered intravenously in dogs; cited from earlier work
[12] = Phase I trial: perceived weight gain by CF QOL questionnaire; type: in vivo, human; settings: 4 weeks
Description: as §3
Any sizeable change in lung function will likely require longer treatment and larger group size, which we look forward to implementing in the placebo-controlled phase of the study.

interleukin-8 = assay: Phase 2 trial: sputum IL-8 protein levels; type: in vivo, human
Description: as §1
as §2, with “In particular, the study looked to confirm the positive effects of high-dose oral NAC seen on sputum neutrophil count and HNE activity obtained in phase 1.” left out, “Data on all other main efficacy endpoints (along with sputum HNE and IL-8 protein levels as additional indicators of inflammation) is presented in Table 3 (below) for all 9 subjects of the NAC group and 9 subjects in the placebo group included in the ITT analysis.” left out
as §6

interleukin-17 (IL-17) = assay: Phase 2 trial: plasma levels of interleukin-17 (IL-17); type: in vivo, human; settings: NAC group compared to placebo group, P=0.02
Description: During week 0 through week12, exacerbations of sinus/lung disease affected 9/18 subjects. Subjects were less prone to exacerbations in the NAC than in the placebo group (2/9 vs. 7/9, respectively, P=0.04, Fisher's exact test). A key molecular correlate of exacerbations, namely plasma levels of the cytokine interleukin-17 (IL-17) also was decreased in the NAC group compared to the placebo-group (P=0.02), further confirming the anti-inflammatory effect of NAC in CF and corroborating its positive effect on acute attacks. IL-17 recently has been identified as a potent T-cell derived modulator of acute neutrophilic lung inflammation [Linden, A., et al. Neutrophils, interleukin-17A and lung disease. Eur. Respir. J. 25:159-172 (2008)]

[13] = test system: human neutrophil elastase (HNE); assay: Phase 2 trial: sputum HNE enzymatic activity; type: in vivo
Description: as §1
as §2, with “In particular, the study looked to confirm the positive effects of high-dose oral NAC seen on sputum neutrophil count and HNE activity obtained in phase 1.” left out, “Data on all other main efficacy endpoints (along with sputum HNE and IL-8 protein levels as additional indicators of inflammation) is presented in Table 3 (below) for all 9 subjects of the NAC group and 9 subjects in the placebo group included in the ITT analysis.” left out
as §6

blood neutrophils = assay: Phase I trial: absolute numbers of neutrophils in blood; type: in vivo, human; settings: dose cohort 2 (2.4 g/d), 4 weeks
Description: Indeed, cohort 2 was more severely affected with regards to several surrogate markers of disease prior to treatment (lower FEV1, all infected with P. aeruginosa, lower perceived weight gain).

[14] = doses less than NAC; effects counter to those reported for NAC; cited from earlier work
[15] = NAC group (n=9), ITT, oral 0.9 g three times daily, week 12
[16] = NAC group (n=9), ITT, week 0 baseline
[17] = All (N = 18), basal vs post-NAC
[18] = phase 2, wk 0 vs wk 12, not in placebo group

## CC(=O)N[C@@H](CS)C(=O)O [NAC, N-acetylcysteine]
[1]
  Stability relative to cysteine: about 10 times
[2]
  Early mortality in ARDS and ALI: no effect
[3]; ITT analysis over the course of the phase 2 trial
  Decline in pulmonary function tests (PFTs): no significant decline
[3]; [15]
  Functional expiratory volume in 1s (% Pred), Value wk 12: 75.6 ± 8.2 % Pred
[3]; [16]
  Functional expiratory volume in 1s (% Pred), Value wk 0: 73.7 ± 7.6 % Pred
[3]; phase 2, 12 weeks
  FEV1 (% Pred), effect: No significant effect; also recorded: failed to detect any significant improvement
[4]; 3 patients excluded (N = 15)
  Live sputum leukocytes, change: −28%
  Live sputum neutrophils, change: −32%
  Neutrophils sputum (%), change: −9%
[4]; [17]
  Live sputum leukocytes, change: −21%
  Live sputum neutrophils, change: −25%
Blood neutrophil GSH; oral 0.9 g three times daily, week 12
  Blood neutrophil intracellular GSH, Value wk 12: 4.10 ± 0.10
Blood neutrophil GSH; week 0 baseline
  Blood neutrophil intracellular GSH, Value wk 0: 4.04 ± 0.08
[5]
  Deterioration of vital capacity and DLCO in IPF: slows the deterioration
[6]
  Subjects with exacerbations of sinus/lung disease: 2/9
[7]; 12-week treatment, marginal changes in red blood cell distribution width and calcium, within normal range
  Complete blood count and chemistry parameters: not affected
[7]; NAC group, not in the placebo group, 12 weeks
  Flatulence (CF QOL questionnaires): significant reduction
[7]; phase 2, 12 weeks
  Liver enzymes: No change
[7]; phase 2, oral 0.9 g three times daily, 12 weeks
  Tolerability: very well tolerated; also recorded: lack of toxicity
elastase; 3 patients excluded (N = 15)
  Elastase in sputum, change: −46%
elastase; [17]
  Elastase in sputum, change: −44%
[8]
  Pulmonary Function Testing results (spirometry): not changed; also recorded: none of the parameters measured by spirometry showed any change
[9]
  Prevention of deterioration in lung function and exacerbations in COPD: ineffective
[10]; [15]
  Sputum HNE protein levels (Log10), Value wk 12: −0.27 ± 0.12 Log10
[10]; [16]
  Sputum HNE protein levels (Log10), Value wk 0: 0.04 ± 0.13 Log10
[10]; [18]
  Sputum HNE protein levels, change within NAC group: significant decreases; also recorded: significantly decreased
interleukin-8 (IL-8)
  IL-8 in sputum, change: −25%
Sputum neutrophils; [15]
  Sputum neutrophil count (Log10), Value wk 12: 1.24 ± 0.18 Log10
Sputum neutrophils; [16]
  Sputum neutrophil count (Log10), Value wk 0: 1.41 ± 0.17 Log10
Sputum neutrophils; phase 2, wk 0 vs wk 12, 0.9 g three times daily, not in placebo group
  Sputum neutrophil count, change within NAC group: significant decreases; also recorded: significantly decreased
[11]
  Pulmonary oxygen toxicity and ischemic and reperfusion damage: protect
[12]; 3 patients excluded (N = 15)
  Perceived weight gain, change: Increased
[12]; All (N = 18), CF QOL
  Perceived weight gain, change: Increased
interleukin-8; [15]
  Sputum IL-8 protein levels (Log10), Value wk 12: 1.81 ± 0.18 Log10
interleukin-8; [16]
  Sputum IL-8 protein levels (Log10), Value wk 0: 2.01 ± 0.12 Log10
interleukin-8; [18]
  Sputum IL-8 protein levels, change within NAC group: significant decreases; also recorded: significantly decreased
interleukin-17 (IL-17)
  Plasma levels of IL-17: decreased
[13]; [15]
  Sputum HNE enzymatic activity (Log10), Value wk 12: 3.16 ± 0.20 Log10
[13]; [16]
  Sputum HNE enzymatic activity (Log10), Value wk 0: 3.61 ± 0.15 Log10
[13]; [18]
  Sputum HNE enzymatic activity, change within NAC group: significant decreases; also recorded: significantly decreased
Blood neutrophils
  Decrease in absolute numbers of neutrophils in blood: 27%

## CC(=O)N[C@@H](CSSC[C@H](NC(C)=O)C(=O)O)C(=O)O [oxidized form of NAC, di-N-acetylcysteine]
[14]
  Bioactive dose relative to NAC: 10-100 fold
